# Experimental data from patent EP0678516B1, “Preparation of 2-bromo-5-(2-bromo-2-nitrovinyl)-furan and its use as microcide” (CENTRO DE BIOACTIVOS QUIMICOS DE LA UNIVERSIDAD CENTRAL DE …, priority 1994, dated 1995).
# Columns and labels:
# Assay in all cases: In vitro MIC (serial dilution)
# Type in all cases: cell-based
# [1] = test system: Staphylococcus albus
# Description: (§1) The antimicrobial sensitivity was first evaluated "in vitro" using the serial dilution method for bacteria and fungi. Other growth methods in agar cultures were included for other species. The liquid and solid mediums used were Mueller-Hinton, Tryptona Soya, Sabouraud Dextrosa, Sabouraud Maltose and other mediums in accordance with the cultural demands of the micro-organisms valued.
# (§2) The temperature and incubation period was adjusted to conditions and characteristics of the micro-organisms used.
# (§3) The Minimal Inhibitory Concentration (MIC) was calculated in terms of MIC50 and MIC90 in µg/ml.
# [2] = test system: Candida krusei; conditions: Pichia kudriavzevii
# Description: as §1, §2, §3
# [3] = test system: Enterobacter spp.
# Description: as §1, §2, §3
# [4] = test system: Haemophilus influenzae
# Description: as §1, §2, §3
smiles,measurement,setting,value
"O=[N+]([O-])C(Br)=Cc1ccc(Br)o1 [Product G-1, 2-bromo-5-(2-bromo-2-nitro-vinyl)-furan]",MIC50,[1],10.2 µg/mL
same,MIC90,[1],19.8 µg/mL
same,MIC50,[2],1.92 µg/mL
same,MIC90,[2],2.84 µg/mL
same,MIC50,[3],5.3 µg/mL
same,MIC90,[3],17.2 µg/mL
same,MIC50,[4],3.51 µg/mL
same,MIC90,[4],39.2 µg/mL
